Source: US7045532B2 (Millennium Pharmaceuticals, Inc., priority 1999, dated 2006)

Experiments:
[1] = target: T1, ACE (Sigma, A2580) (Sus scrofa, UniProt F1RRW5); assay: ACE enzymatic activity assay; assay type: biochemical, porcine; conditions: Ki class; compounds tested in 5% DMSO, 12 concentrations
T1 construct: ACE from porcine kidney; purchased Sigma A2580; host or cells: porcine kidney
T1 sequence (F1RRW5 34-1309): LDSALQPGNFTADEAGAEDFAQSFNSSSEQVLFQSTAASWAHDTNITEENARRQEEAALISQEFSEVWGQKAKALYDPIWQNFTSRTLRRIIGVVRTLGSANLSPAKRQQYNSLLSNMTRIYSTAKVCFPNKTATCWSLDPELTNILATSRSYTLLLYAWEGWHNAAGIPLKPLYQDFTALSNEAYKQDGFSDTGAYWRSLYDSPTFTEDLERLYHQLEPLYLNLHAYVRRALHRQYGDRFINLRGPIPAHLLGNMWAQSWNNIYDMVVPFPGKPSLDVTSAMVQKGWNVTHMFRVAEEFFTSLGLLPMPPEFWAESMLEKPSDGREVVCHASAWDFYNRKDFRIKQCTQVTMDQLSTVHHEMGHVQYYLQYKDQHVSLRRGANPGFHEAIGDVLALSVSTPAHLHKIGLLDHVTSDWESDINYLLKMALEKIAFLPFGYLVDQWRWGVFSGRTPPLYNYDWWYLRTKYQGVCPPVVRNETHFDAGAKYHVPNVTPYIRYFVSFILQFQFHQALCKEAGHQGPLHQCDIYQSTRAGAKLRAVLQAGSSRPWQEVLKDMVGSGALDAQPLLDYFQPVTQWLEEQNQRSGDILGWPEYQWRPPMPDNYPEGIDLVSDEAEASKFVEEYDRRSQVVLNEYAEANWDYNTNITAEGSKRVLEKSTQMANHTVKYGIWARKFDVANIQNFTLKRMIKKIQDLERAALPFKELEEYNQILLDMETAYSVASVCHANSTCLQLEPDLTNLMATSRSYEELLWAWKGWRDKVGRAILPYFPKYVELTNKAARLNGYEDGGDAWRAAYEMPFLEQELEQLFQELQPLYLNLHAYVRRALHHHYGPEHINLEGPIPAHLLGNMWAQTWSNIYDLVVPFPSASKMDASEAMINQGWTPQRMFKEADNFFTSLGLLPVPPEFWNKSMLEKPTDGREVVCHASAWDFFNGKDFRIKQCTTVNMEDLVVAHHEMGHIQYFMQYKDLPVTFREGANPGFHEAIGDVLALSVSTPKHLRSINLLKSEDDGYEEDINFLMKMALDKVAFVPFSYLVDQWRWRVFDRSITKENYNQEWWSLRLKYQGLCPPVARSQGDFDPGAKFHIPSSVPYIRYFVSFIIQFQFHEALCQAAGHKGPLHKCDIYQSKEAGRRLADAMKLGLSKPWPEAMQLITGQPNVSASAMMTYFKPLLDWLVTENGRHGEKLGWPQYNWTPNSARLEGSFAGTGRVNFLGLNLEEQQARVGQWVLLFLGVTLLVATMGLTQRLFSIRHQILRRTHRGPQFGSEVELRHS
Protocol: ACE (Sigma, A2580) enzymatic activity was assayed in microtiter plates using the following protocol. ACE assay buffer was made from 50 mM HEPES (Sigma), 300 mM sodium chloride (Sigma), and 0.01% Brij-35 (Pierce Chemical Co) at pH 7.5.
Reactions were mixed and incubated at 25° C. Enzymatic cleavage of the substrate is marked by a fluorescence change (excitation 330 nm, emission 415 nm).
The activity of the test compounds was investigated using the procedure outlined above. The compounds were tested in 5% DMSO. Enzyme activity was measured at 12 compound concentrations. […]. […]

[2] = target: T2, Carboxypeptidase A (Bos taurus, UniProt P00730); assay: Carboxypeptidase A activity assay; assay type: biochemical; conditions: Ki class; compounds tested in 5% DMSO, 12 concentrations
T2 sequence (P00730 111-419): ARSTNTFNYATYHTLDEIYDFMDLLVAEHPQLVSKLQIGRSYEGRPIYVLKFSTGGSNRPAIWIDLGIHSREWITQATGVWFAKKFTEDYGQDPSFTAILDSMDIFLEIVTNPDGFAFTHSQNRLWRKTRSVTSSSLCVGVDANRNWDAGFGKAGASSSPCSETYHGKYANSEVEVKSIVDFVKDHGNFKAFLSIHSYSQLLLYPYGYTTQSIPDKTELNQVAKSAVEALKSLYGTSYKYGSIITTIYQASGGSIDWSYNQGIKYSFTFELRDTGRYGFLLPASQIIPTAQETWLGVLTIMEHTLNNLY
Protocol: Carboxypeptidase A activity was measured using a literature assay (Holmquist and Riordan, “Carboxypeptidase A,” Methods of Enzymatic Analysis (1984) p. 44–60). The assay was adapted to a 96 well format by adjusting to a 300 μL assay volume and using ultra-thin bottom plates (Costar/Corning) read at 328 nm. The assay was stopped using EDTA.
The activity of the test compounds was investigated using the procedure outlined above. The compounds were tested in 5% DMSO. Enzyme activity was measured at 12 compound concentrations. The Ki was calculated by using Ki=Kiapp/(1+[S]/Km).
To determine whether a test compound is capable of modulating carboxypeptidase A's ability to cleave a substrate the method described in Holmquist and Riordan, Carboxypeptidase A, p44–60, Peptidase and Their Inhibitors in Method of Enzymatic Analysis (1984), may be used.
The assay may be adapted to a 96 well format by adjusting to a 300 μl assay volume and using ultrathin bottom plates (Costar/Coming) read at 328 nm with a final assay volume of 300 μl. The assay may be stopped using EDTA.

[3] = target: T3, ACE-2 (Homo sapiens, UniProt Q9BYF1); assay: ACE-2 Competitive Substrate Assay (ACS Assay); assay type: biochemical; conditions: Ki class; compounds tested in 5% DMSO, 12 concentrations; read-out: Human ACE-2 Activity
T3 construct: a stop codon inserted after the serine immediately preceding the transmembrane domain; made in house; host or cells: CHO K1 cells (transient transfection, purified from conditioned medium)
T3 sequence (Q9BYF1 18-740 limits assumed): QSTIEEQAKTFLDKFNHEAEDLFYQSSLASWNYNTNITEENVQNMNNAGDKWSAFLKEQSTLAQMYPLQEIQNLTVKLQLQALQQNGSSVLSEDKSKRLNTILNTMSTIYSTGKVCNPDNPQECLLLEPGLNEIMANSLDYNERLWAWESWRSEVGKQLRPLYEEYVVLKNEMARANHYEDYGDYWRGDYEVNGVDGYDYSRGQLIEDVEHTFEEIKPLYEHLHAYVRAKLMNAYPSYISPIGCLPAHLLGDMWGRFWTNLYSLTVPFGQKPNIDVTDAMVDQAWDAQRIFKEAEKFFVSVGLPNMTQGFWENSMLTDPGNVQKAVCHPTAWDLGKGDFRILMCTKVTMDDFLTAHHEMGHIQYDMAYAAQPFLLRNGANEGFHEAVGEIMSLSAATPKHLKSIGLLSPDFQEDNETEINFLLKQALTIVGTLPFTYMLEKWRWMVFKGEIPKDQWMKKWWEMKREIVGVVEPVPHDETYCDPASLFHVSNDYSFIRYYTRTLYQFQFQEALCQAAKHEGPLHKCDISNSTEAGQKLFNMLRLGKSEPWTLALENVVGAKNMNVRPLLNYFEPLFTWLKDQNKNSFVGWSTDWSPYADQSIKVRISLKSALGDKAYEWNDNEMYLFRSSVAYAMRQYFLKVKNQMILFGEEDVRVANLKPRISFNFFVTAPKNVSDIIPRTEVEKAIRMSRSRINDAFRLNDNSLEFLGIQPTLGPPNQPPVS

Row | Compound | Ki [1] [µM] | Ki [2] [µM] | Ki [3] [µM]
1 | 2-[2-(3-Benzyl-3H-imidazol-4-yl)-1-carboxy-ethylamino]-butync acid [GG] | > 50 | > 50 | –
2 | CC(CS)C(=O)O (centres unmarked) [G, 3-Mercapto-2-methyl-propionic acid] | > 50 | – | > 0.5
3 | CC(C)CC(N[C@@H](Cc1cncn1Cc1ccc(C(=O)O)cc1)C(=O)O)C(=O)O (single isomer, unassigned) [GP, 4-[5-[2-Carboxy-2-(1-carboxy-3-methyl-butylamino)-ethyl]-imidazol-1-ylmethyl]-benzoic acid] | > 50 | > 50 | –
4 | 2-[2-(3-Benzyl-3H-imidazol-4-yl)-1-carboxy-ethylamino]-butync acid [GH] | > 50 | > 50 | –
5 | 4-Methyl-2-(3-phenethyl-ureido)-pentanoic acidmethyl ester [DG] | > 50 | > 50 | –
6 | COc1ccc(CCNC(=O)[C@H](Cc2cnc[nH]2)NC(CC(C)C)C(=O)O)cc1 (single isomer, unassigned) [FL, 2-{2-(3H-Imidazol-4-yl)-1-[2-(4-methoxy-phenyl)-ethylcarbamoyl]-ethylamino}4-methyl-pentanoic acid] | > 50 | > 50 | –
7 | CC(C)CC(N[C@@H](Cc1cn(Cc2ccccc2)cn1)C(=O)O)C(=O)O (single isomer, unassigned) [DM, 2-[2-(1-Benzyl-1H-imidazol-4-yl)-1-carboxy-ethylamino]-4-methyl-pentanoic acid] | > 50 | > 50 | –
8 | CC(C)CC(N[C@@H](Cc1cnc[nH]1)C(=O)NCCc1ccccc1)C(=O)O (single isomer, unassigned) [FX, 2-[2-(3H-Imidazol-4-yl)-1-phenethylcarbamoyl-ethylamino]-4-methyl-pentanoic acid] | > 50 | > 50 | –
9 | CC(=O)N(C(CCc1ccccc1)C(=O)O)[C@@H](CC(C)C)C(=O)O (single isomer, unassigned) [AU, 2-[Acetyl-(1-carboxy-3-phenyl-propyl)-amino]-4-methyl-pentanoic acid] | > 50 | > 50 | –
10 | CC(C)CC(N[C@@H](Cc1cn(Cc2ccc(Cl)cc2)cn1)C(=O)O)C(=O)O (some centres unmarked) [EU, 2-[1-Carboxy-2-[1-(4-chloro-benzyl)-1H-imidazol-4-yl]-ethylamino)4-methyl-pentanoic acid] | > 50 | 10 to 50 | –
11 | CC(C)CC(N[C@H](CO)Cc1c[nH]cn1)C(=O)O (single isomer, unassigned) [FP, 2-[1-Hydroxymethyl-2-(1H-imidazol-4-yl)-ethylamino)4-methyl-pentanoic acid] | > 50 | > 50 | –
12 | CCCCC(CC(=O)O)N[C@@H](Cc1c[nH]cn1)C(=O)O (single isomer, unassigned) [ET, 3-[1-Carboxy-2-(1H-imidazol-4-yl)-ethylamino]heptanoic acid] | > 50 | > 50 | –
13 | CC(C)C[C@H](NC(CCc1ccccc1)C(=O)O)C(=O)O (some centres unmarked) [C, 2-(1-Carboxy-3-phenyl-propylamino)-4-methyl-pentanoic acid] | > 50 | – | > 0.5
14 | CC(C)CC(N[C@@H](Cc1cncn1Cc1ccc(Cl)cc1)C(=O)O)C(=O)O (single isomer, unassigned) [GN, 2-[1-Carboxy-2-[3-(4-chloro-benzyl)-3H-imidazol-4-yl]-ethylamino]4-methyl-pentanoic acid] | > 50 | > 50 | –
15 | O=C(O)C(Cc1ccccc1)NC(Cc1cncn1Cc1ccccc1)C(=O)O (centres unmarked) [GE, 3-(3-Benzyl-3H-imidazol-4-yl)-2-(1-carboxy-2-phenyl-ethylamino)-propronic acid] | > 50 | > 50 | –

Further lines, results first:

Row | Ki [1] [µM] | Ki [2] [µM] | Ki [3] [µM] | Compound
16 | > 50 | > 50 | – | CC(C)CC(N[C@@H](Cc1cncn1COCc1ccccc1)C(=O)NCCc1ccccc1)C(=O)O (single isomer, unassigned) [FN, 2-[2-(3-Benzyloxymethyl-3H-imidazol-4-yl)-1-phenethylcarbamoyl-ethylamino]-4-methyl-pentanoic acid]
17 | > 50 | > 50 | – | O=C(O)C(CCc1ccccc1)N[C@@H](Cc1c[nH]cn1)C(=O)O (some centres unmarked) [ER, 2-[1-Carboxy-2-(1H-imidazol-4-yl)-ethylamino]4-phenyl-butync acid]
18 | > 50 | > 50 | – | CC(C)CC(N[C@@H](Cc1cncn1Cc1ccccc1)C(=O)O)C(=O)O (single isomer, unassigned) [FA, 2-[2-(3-Benzyl-3H-imidazol-4-yl)-1-carboxy-ethylamino]-4-methyl-pentanoic acid]
19 | > 50 | > 50 | – | CC(C)CC(N[C@@H](CNc1ccccc1)C(=O)O)C(=O)O (single isomer, unassigned) [FJ, 2-(1-Carboxy-2-phenylamino-ethylamino)-4-methyl-pentanoic acid]
20 | > 50 | – | > 0.5 | CC(C)C[C@H](N[C@@H](CCc1ccccc1)C(=O)O)C(=O)O [D, 2-(1-Carboxy-3-phenyl-propylamino)-4-methyl-pentanoic acid]
21 | > 50 | > 50 | – | CC(C)CC(N[C@@H](Cc1c[nH]cn1)C(=O)Nc1ccc([N+](=O)[O-])cc1)C(=O)O (single isomer, unassigned) [EY, 2-[2-(1H-Imidazol-4-yl)-1-(4-nitro-phenylcarbamoyl)ethylamino]-4-methyl-pentanoic acid]
22 | > 50 | > 50 | – | CC(C)CC(N[C@@H](Cc1c[nH]cn1)C(N)=O)C(=O)O (single isomer, unassigned) [EW, 2-[1-Carbamoyl-2-(1H-imidazol-4-yl)-ethylamino]4-methyl-pentanoic acid]
23 | 10 to 50 | > 50 | – | CC(C)CC(N[C@H](Cc1c[nH]cn1)C(=O)O)C(=O)O (single isomer, unassigned) [BJ, 2-[1-Carboxy-2-(1H-imidazol-4-yl)-ethylamino]4-methyl-pentanoic acid]
24 | 10 to 50 | > 50 | – | CC(C)CC(N[C@H](Cc1cn(Cc2ccccc2)cn1)C(=O)O)C(=O)O (some centres unmarked) [CX, 2-[2-(1-Benzyl-1H-imidazol-4-yl)-1-carboxy-ethylamino]-4-methyl-pentanoic acid]
25 | 10 to 50 | 10 to 50 | – | CC(C)CC(N[C@@H](Cc1cncn1Cc1cccc2ccccc12)C(=O)O)C(=O)O (single isomer, unassigned) [GL, 2-[1-Carboxy-2-(3-naphthalen-1-ylmethyl-3Himidazol-4-yl)-ethylamino]4-methyl-pentanoic acid]
